Like-named read-outs stand apart in the source and are kept apart here.
Assays:
[1] = tested on: Rhodococcus HPPD SEQ ID No. 19 (FMP23e); assay: biochemical; assay type: biochemical, Rhodococcus sp. (strain RHA1), isolate ro02040
[2] = tested on: Rhodococcus HPPD SEQ ID No. 5 (FMP22e); assay: biochemical; assay type: biochemical, Rhodococcus sp. (strain RHA1), isolate ro03041
[3] = tested on: Rhodococcus HPPD SEQ ID No. 19 (FMP23e); assay: HPLC assay of HPPD in vitro kinetic properties; assay type: biochemical, Rhodococcus sp. (strain RHA1), isolate ro02040; conditions: substrate HPP, 10 to 400 μM; SEQ ID No. 19
[4] = target: T1, Arabidopsis thaliana HPPD SEQ ID No. 10 (Arabidopsis thaliana, UniProt P93836); assay: HPLC assay of HPPD in vitro kinetic properties; conditions: substrate HPP, 10 to 400 μM; SEQ ID No. 10
T1 sequence (P93836 with tags, fused parts or gaps): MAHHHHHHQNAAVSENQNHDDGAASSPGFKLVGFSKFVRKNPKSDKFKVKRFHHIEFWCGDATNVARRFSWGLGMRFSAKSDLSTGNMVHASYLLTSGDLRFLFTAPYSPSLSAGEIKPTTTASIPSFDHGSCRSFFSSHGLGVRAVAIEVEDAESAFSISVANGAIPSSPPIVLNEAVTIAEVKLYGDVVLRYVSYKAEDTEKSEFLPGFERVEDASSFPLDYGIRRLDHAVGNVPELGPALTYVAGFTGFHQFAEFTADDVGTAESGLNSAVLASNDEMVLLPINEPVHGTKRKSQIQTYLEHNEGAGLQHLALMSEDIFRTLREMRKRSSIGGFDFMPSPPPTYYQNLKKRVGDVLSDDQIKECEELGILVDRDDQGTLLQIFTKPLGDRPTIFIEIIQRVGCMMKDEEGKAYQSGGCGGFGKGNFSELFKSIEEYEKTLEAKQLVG
Method: All assays were started by the addition of HPPD enzyme to the assay mixture and stopped at a series of times between 0 and 240 s by addition of 200 μl of the reaction mixture to reaction assay tubes containing 20 μl 10% perchloric acid. Precipitated protein was pelleted by a 5 minute centrifugation at 10,000 g. […] For Km and Vmax value determinations the initial rates of the HPPD reaction at different substrate concentrations were determined from plots of HGA formed versus time and fitted to the Michaelis-Menten equation for unireactant enzymes using the ID Business Solutions Ltd. (idbs.com) XLfit software suite.

[5] = tested on: tobacco plants containing Arabidopsis HPPD; assay: Glasshouse trial, herbicidal damage on T1 tobacco; assay type: in vivo, Nicotiana tabacum; conditions: 7 DAT, 100 g AI/ha spray; Arabidopsis HPPD line 258, single T1 plants
Method: T0 Tobacco plants containing either the gene from Arabidopsis coding for HPPD or the gene FMP22e from Rhodococcus sp. (strain RHA1), isolate ro03041 coding for FMP22 HPPD, or the gene FMP23e from Rhodococcus sp. (strain RHA1), isolate ro02040 mentioned above (Example 3), were transferred to the glasshouse (28/20° C.), to develop further and produce seeds. Those seeds were harvested and put on soil (ED73 mixed with sand and osmocote Pro) to germinate in the glasshouse (28/20° C.). Three to four weeks later, plantlets were transferred to single pots containing the soil mentioned above. Two weeks later, plants of a size 4-6 cm diameter were sprayed with either • tembotrione at 100 gAl/ha prepared from a WP20 (wettable powder 20%) formulation supplemented with ammonium sulfate and methyl ester raps oil, or • isoxaflutole at 100 gAl/ha prepared from a WP20 formulation supplemented with ammonium sulfate and methyl ester raps oil, or • bicyclopyrone at 100 gAl/ha prepared from a WP20 formulation supplemented with ammonium sulfate and methyl ester raps oil, or • “blind formulation” made from a WP20 formulation without active ingredient (Al) supplemented with ammonium sulfate and methyl ester raps oil, and were then transferred to a growth chamber with adequate light conditions (20000 Lux).

[6] = tested on: transgenic soybean shoots, FMP23t-h; assay: Soybean shoot greening on isoxaflutole selection; assay type: cell-based; conditions: isoxaflutole as selection marker
Description: (§1) Soybean transformation is achieved using methods well known in the art, such as the one described using the Agrobacterium tumefaciens mediated transformation soybean half-seed explants described by Paz et al. (2006, Plant cell Rep. 25:206). Transformants were identified using Isoxaflutole as selection marker. The appearance of green shoots was observed, and documented as an indicator of tolerance to the herbicide isoxaflutole.

wild-type soybean shoots = assay: Soybean shoot greening on isoxaflutole selection; assay type: cell-based; conditions: same amount of isoxaflutole
Description: as §1

[7] = tested on: transgenic soybean shoots, FMP22t-h; assay: Soybean shoot greening on isoxaflutole selection; assay type: cell-based; conditions: isoxaflutole as selection marker
Description: as §1

(UniProt Q0SF39) [8] = assay: biochemical; assay type: biochemical, Rhodococcus sp. (strain RHA1), isolate ro02040; conditions: read-out: pI50 (converted)
(UniProt Q0SC92) = assay: biochemical; assay type: biochemical, Rhodococcus sp. (strain RHA1), isolate ro03041; conditions: read-out: pI50 (converted)
[9] = target: T1, Arabidopsis thaliana HPPD SEQ ID No. 10; assay: HPPD activity in presence of HPPD inhibitors (pI50, % inhibition); assay type: biochemical; design: made in house; host or cells: E. coli K-12 BL21 (pQE30-AtHPPD)
[10] = tested on: T1 tobacco plants carrying FMP22e; assay: Response to bicyclopyrone, T1 tobacco classified by injury; assay type: in vivo, Nicotiana tabacum; conditions: 100 g AI/ha, 7 DAT; for Class I (number of plants): injury: 0-30%; for Class II (number of plants): injury: 31-100%
Description: (§2) Seeds of wild type tobacco plants and T1 tobacco plants carrying the gene from Rhodococcus sp. (strain RHA1), isolate ro03041 FMP22e coding for HPPD FMP22 or plants carrying the gene from Rhodococcus sp. (strain RHA1) isolate ro02040 FMP23e coding for HPPD FMP23 were sown on MS media (Murashige and Skoog […]) supplemented with […] kanamycin. After 4 weeks, rooted green plantlets were transferred to soil and grown for 3 weeks in the glasshouse as described above then sprayed with a mixture containing bicyclopyrone (100 g Al/ha), ammonium sulfate and methyl ester raps oil. The plants were classified in two categories based on the phenotype developed in response to the herbicide seven days after the treatment. […] In this case, only plants containing at least one T-DNA were exposed to the herbicidal treatment.

[11] = tested on: T1 tobacco plants carrying FMP23e; assay: as above; assay type: in vivo, Nicotiana tabacum; conditions: 100 g AI/ha, 7 DAT, FMP23e line 188
Description: as §2

Wild type tobacco plants = assay: as above; assay type: in vivo, Nicotiana tabacum; conditions: 100 g AI/ha, 7 DAT, line WT
Description: as §2

(UniProt Q0SF39) [12] = assay: HPLC assay of HPPD in vitro kinetic properties; assay type: biochemical, Rhodococcus sp. (strain RHA1), isolate ro02040
[13] = SEQ ID No. 19, 5.0 × 10^−6 M inhibitor
[14] = SEQ ID No. 5, 5.0 × 10^−6 M inhibitor

CS(=O)(=O)c1ccc(C(=O)C2C(=O)CCCC2=O)c([N+](=O)[O-])c1 [Mesotrione, 2-[4-(methylsulfonyl)-2-nitrobenzoyl]-1,3-cyclohexanedione]
percentage of inhibition compared to activity in absence of the inhibitor [1]: 67%
percentage of inhibition compared to activity in absence of the inhibitor [2]: 54%

O=C(O)C(=O)Cc1ccc(O)cc1 [HPP, para-hydroxyphenylpyruvate]
Km [3]: 35 µM
Vmax [3]: 1.1 µM
Km [4]: 6.3 µM
Vmax [4]: 1.2 µM

CS(=O)(=O)c1ccc(C(=O)C2C(=O)CCCC2=O)c(Cl)c1 [Sulcotrione, 2-[2-chloro-4-(methylsulfonyl)benzoyl]-1,3-cyclohexanedione]
pI50 [1]: 5.5
percentage of inhibition compared to activity in absence of the inhibitor [1]: 73%
pI50 [2]: 5.3

CS(=O)(=O)c1cc(C(F)(F)F)ccc1C(=O)c1cnoc1C1CC1 [Isoxaflutole, (5-cyclopropyl-4-isoxazolyl)[2-(methylsulfonyl)-4-(trifluoromethyl)phenyl]methanone]
% injury [5]: 100%
transgenic tested shoots showing normal greening [6]: 1.9%
appearance of shoots treated with isoxaflutole (wild-type soybean shoots): entirely bleached
transgenic tested shoots showing normal greening [7]: 1.8%

Cc1ccc(C(=O)COc2c(C(=O)c3ccc(Cl)c(C)c3Cl)c(C)nn2C)cc1 [Benzofenap]
percentage of inhibition compared to activity in absence of the inhibitor [1, 13]: 72%
IC50 ((UniProt Q0SF39) [8]): 2.51 µM
percentage of inhibition compared to activity in absence of the inhibitor [2, 14]: 57%
IC50 ((UniProt Q0SC92)): 3.98 µM

Cc1nn(C)c(O)c1C(=O)c1ccc(C(F)(F)F)cc1S(C)(=O)=O [Pyrasulfotole]
pI50 ([9]; 2 mM HPP, 3 minutes incubation): 5.4
percentage of inhibition compared to activity in absence of the inhibitor ([9]; 5.0 × 10^−6 M inhibitor): 69%
pI50 ([1]; SEQ ID No. 19, 2 mM HPP, 3 minutes incubation): 4.1
percentage of inhibition compared to activity in absence of the inhibitor [1, 13]: 2%
pI50 ([2]; SEQ ID No. 5, 2 mM HPP, 3 minutes incubation): 4.0
percentage of inhibition compared to activity in absence of the inhibitor [2, 14]: 0%

CS(=O)(=O)c1ccc(C(=O)C2C(=O)CCCC2=O)c(Cl)c1COCC1CCCO1 (stereo not drawn) [Tefuryltrione, 2-[2-chloro-4-(methylsulfonyl)-3-[[(tetrahydro-2-furanyl)methoxy]methyl]benzoyl]-1,3-cyclohexanedione]
percentage of inhibition compared to activity in absence of the inhibitor [1, 13]: 65%
IC50 ((UniProt Q0SF39) [8]): 2.51 µM
percentage of inhibition compared to activity in absence of the inhibitor [2, 14]: 43%
IC50 ((UniProt Q0SC92)): 6.31 µM

COCCOCc1nc(C(F)(F)F)ccc1C(=O)C1=C(O)C2CCC(C2)C1=O (stereo not drawn) [Bicyclopyrone, 4-hydroxy-3-[[2-[(2-methoxyethoxy)methyl]-6-(trifluoromethyl)-3-pyridinyl]carbonyl]bicyclo[3.2.1]oct-3-en-2-one]
percentage of inhibition compared to activity in absence of the inhibitor [1, 13]: 1%
IC50 ((UniProt Q0SF39) [8]): 63.1 µM
% of tolerant plant ([10]; FMP22e line 64): >50%
Class I (number of plants) ([10]; FMP22e line 64): >100
Class II (number of plants) ([10]; FMP22e line 64): 104
% of tolerant plant ([10]; FMP22e line 65): 64%
Class I (number of plants) ([10]; FMP22e line 65): 86
Class II (number of plants) ([10]; FMP22e line 65): 48
% of tolerant plant ([10]; FMP22e line 163): 50%
Class I (number of plants) ([10]; FMP22e line 163): 45
Class II (number of plants) ([10]; FMP22e line 163): 46
% of tolerant plant [11]: 59%
Class I (number of plants) ([11]; injury: 0-30%): 100
Class II (number of plants) ([11]; injury: 31-100%): 70
% of tolerant plant (Wild type tobacco plants): 0%
Class I (number of plants) (Wild type tobacco plants; Class I: no to light injuries (injury: 0-30%)): 0
Class II (number of plants) (Wild type tobacco plants; Class II: strong injuries (injury: 31-100%)): 12
percentage of inhibition compared to activity in absence of the inhibitor [2, 14]: 0%
IC50 ((UniProt Q0SC92)): 126 µM

CS(=O)(=O)c1cc(C(F)(F)F)ccc1C(=O)C(C#N)C(=O)C1CC1 (stereo not drawn) [Diketonitrile, 2-cyano-3-cyclopropyl-1-(2-methylsulphonyl-4-trifluoromethylphenyl)-propane-1,3-dione]
Ki ((UniProt Q0SF39) [12]): 3.6 µM
percentage of inhibition compared to activity in absence of the inhibitor [1, 13]: 11%
IC50 ((UniProt Q0SF39) [8]): 25.1 µM
percentage of inhibition compared to activity in absence of the inhibitor [2, 14]: 27%
IC50 ((UniProt Q0SC92)): 15.8 µM

Reference: patent publication US8847018B2, “Plants tolerant to HPPD inhibitor herbicides” (Bayer CropScience AG, priority 2009, dated 2014)
